≈ marks a conversion by molar mass, not a printed value.
Legend:
Mtb-KD = assay type: cell-based, Mycobacterium tuberculosis
clinical Mtb strains = assay: microbe, parasite or virus in culture; assay type: cell-based, Mycobacterium tuberculosis; conditions: Mycobacterium tuberculosis; range over standard and clinical strains (abstract); read-out: MIC for the standard and clinical drug-resistant Mtb strains

Compound | MIC, ddlA knocked-down (Mtb-KD) [µg/mL] | MIC, ddlA overexpressed (Mtb-KD) [µg/mL] | MIC (clinical Mtb strains) [µg/mL]
OC1(c2ccc(OC(F)F)cc2)C[N+](c2ccccc2)=C2CCCCN21 (centres unmarked) [IMB-0283] | 0.25 | 2 | 0.25 to 4
N[C@@H]1CON=C1O [DCS, D-cycloserine, reference compound] | 1 (≈ 9.79 µM) | 32 (≈ 313 µM) | –
